Results published in patent publication US20240327364A1, “THERAPEUTIC TARGETING OF GPR68 TO INDUCE FERROPTOSIS” (University Of Maryland, Baltimore, priority 2023, published 2024).

Legend:
[1] = target: T1, ABL1(F317I)-nonphosphorylated (Homo sapiens, UniProt P00519, F317I); experiment: KinomeScan; format: binding; conditions: read-out: % Control
T1 construct: purchased DiscoveRx

[2] = target: T2, ABL1(F317I)-phosphorylated (Homo sapiens, UniProt P00519, F317I); experiment: KinomeScan; format: binding; conditions: read-out: % Control
T2 construct: purchased DiscoveRx

[3] = target: T3, ABL1(Q252H)-phosphorylated (Homo sapiens, UniProt P00519, Q252H); experiment: KinomeScan; format: binding; conditions: read-out: % Control
T3 construct: purchased DiscoveRx

[4] = target: T4, ABL1(T315I)-nonphosphorylated (Homo sapiens, UniProt P00519, T315I); experiment: KinomeScan; format: binding; conditions: read-out: % Control
T4 construct: purchased DiscoveRx

ABL2 = target: T5, ABL2 (Homo sapiens, UniProt P42684); experiment: KinomeScan; format: binding; conditions: read-out: % Control
T5 construct: purchased DiscoveRx

CDK5 = target: T6, CDK5 (Homo sapiens, UniProt Q00535); experiment: KinomeScan; format: binding; conditions: read-out: % Control
T6 construct: purchased DiscoveRx (KinomeScan service)

CIT = CIT (Homo sapiens, UniProt O14578); experiment: KinomeScan; format: binding; conditions: read-out: % Control
EPHA4 = target: T7, EPHA4 (Homo sapiens, UniProt P54764); experiment: KinomeScan; format: binding; conditions: read-out: % Control
T7 construct: purchased DiscoveRx (Fremont, CA)

EPHB6 = target: T8, EPHB6 (Homo sapiens, UniProt O15197); experiment: KinomeScan; format: binding; conditions: read-out: % Control
T8 construct: purchased DiscoveRx (Fremont, CA)

GAK = target: T9, GAK (Homo sapiens, UniProt O14976); experiment: KinomeScan; format: binding; conditions: read-out: % Control
T9 construct: purchased DiscoveRx (Fremont, CA)

LATS1 = target: T10, LATS1 (Homo sapiens, UniProt O95835); experiment: KinomeScan; format: binding; conditions: read-out: % Control
T10 construct: purchased DiscoveRx

LATS2 = target: T11, LATS2 (Homo sapiens, UniProt Q9NRM7); experiment: KinomeScan; format: binding; conditions: read-out: % Control
T11 construct: purchased DiscoveRx

LKB1 = target: T12, LKB1 (Homo sapiens, UniProt Q15831); experiment: KinomeScan; format: binding; conditions: read-out: % Control
T12 construct: purchased DiscoveRx

MUSK = target: T13, MUSK (Homo sapiens, UniProt O15146); experiment: KinomeScan; format: binding; conditions: read-out: % Control
T13 construct: purchased DiscoveRx

NEK5 = target: T14, NEK5 (Homo sapiens, UniProt Q6P3R8); experiment: KinomeScan; format: binding; conditions: read-out: % Control
T14 construct: purchased DiscoveRx

PRKD1 = target: T15, PRKD1 (Homo sapiens, UniProt Q15139); experiment: KinomeScan; format: binding; conditions: read-out: % Control
T15 construct: purchased DiscoveRx (Fremont, CA)

SRPK1 = target: T16, SRPK1 (Homo sapiens, UniProt Q96SB4); experiment: KinomeScan; format: binding; conditions: read-out: % Control
T16 construct: purchased DiscoveRx (Fremont, CA)

SRPK3 = target: T17, SRPK3 (Homo sapiens, UniProt Q9UPE1); experiment: KinomeScan; format: binding; conditions: read-out: % Control
T17 construct: purchased DiscoveRx (Fremont, CA)

A2B = target: T18, A2B (Homo sapiens, UniProt P29275); experiment: GPCR Profiler; format: cell-based
T18 construct: host or cells: Chem-1 cells with promiscuous Gα15
T18 sequence (P29275 whole entry): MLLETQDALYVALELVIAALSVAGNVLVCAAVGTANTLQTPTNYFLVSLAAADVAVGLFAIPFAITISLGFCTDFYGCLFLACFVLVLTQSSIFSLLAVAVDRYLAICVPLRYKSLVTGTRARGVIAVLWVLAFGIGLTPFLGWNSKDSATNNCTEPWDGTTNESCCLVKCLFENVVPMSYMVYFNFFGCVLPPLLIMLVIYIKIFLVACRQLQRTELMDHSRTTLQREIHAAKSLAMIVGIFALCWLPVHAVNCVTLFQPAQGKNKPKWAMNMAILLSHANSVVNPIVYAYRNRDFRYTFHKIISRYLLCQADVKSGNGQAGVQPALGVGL

ADRA1D = target: T19, ADRA1D (Homo sapiens, UniProt P25100); experiment: GPCR Profiler; format: cell-based
T19 construct: host or cells: Chem-1 cells with promiscuous Gα15
T19 sequence (P25100 whole entry, species assumed): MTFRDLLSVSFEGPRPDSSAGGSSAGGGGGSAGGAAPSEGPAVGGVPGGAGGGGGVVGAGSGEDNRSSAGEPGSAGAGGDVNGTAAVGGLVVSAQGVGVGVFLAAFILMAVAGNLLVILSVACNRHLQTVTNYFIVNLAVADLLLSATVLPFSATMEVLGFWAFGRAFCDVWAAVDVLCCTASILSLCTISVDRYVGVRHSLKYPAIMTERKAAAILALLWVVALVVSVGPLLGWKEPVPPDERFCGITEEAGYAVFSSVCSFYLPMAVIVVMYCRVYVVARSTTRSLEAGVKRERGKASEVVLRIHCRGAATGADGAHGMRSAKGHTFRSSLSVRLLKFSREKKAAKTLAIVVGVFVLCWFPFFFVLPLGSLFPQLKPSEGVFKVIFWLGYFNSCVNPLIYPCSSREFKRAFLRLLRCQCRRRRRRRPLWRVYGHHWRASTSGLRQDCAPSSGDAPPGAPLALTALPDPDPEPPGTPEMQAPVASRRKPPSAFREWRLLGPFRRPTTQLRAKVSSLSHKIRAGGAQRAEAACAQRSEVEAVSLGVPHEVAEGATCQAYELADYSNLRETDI

C3aR = target: T20, C3aR (Homo sapiens, UniProt Q16581); experiment: GPCR Profiler; format: cell-based
T20 construct: host or cells: Chem-1 cells with promiscuous Gα15
T20 sequence (Q16581 whole entry, species assumed): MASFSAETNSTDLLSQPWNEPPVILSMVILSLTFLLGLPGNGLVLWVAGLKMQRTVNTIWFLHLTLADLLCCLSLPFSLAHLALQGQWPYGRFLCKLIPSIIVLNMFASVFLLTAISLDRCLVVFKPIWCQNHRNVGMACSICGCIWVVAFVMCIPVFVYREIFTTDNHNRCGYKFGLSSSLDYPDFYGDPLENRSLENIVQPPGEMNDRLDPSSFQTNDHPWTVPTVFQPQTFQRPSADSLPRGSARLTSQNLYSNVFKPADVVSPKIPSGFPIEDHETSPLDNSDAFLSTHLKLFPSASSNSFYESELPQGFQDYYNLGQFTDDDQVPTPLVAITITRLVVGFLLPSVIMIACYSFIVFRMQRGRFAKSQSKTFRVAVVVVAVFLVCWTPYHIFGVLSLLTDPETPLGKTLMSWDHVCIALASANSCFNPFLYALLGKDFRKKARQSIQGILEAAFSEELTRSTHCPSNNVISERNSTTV

ETA = target: T21, ETA (Homo sapiens, UniProt P25101); experiment: GPCR Profiler; format: cell-based
T21 construct: host or cells: Chem-1 cells expressing Gα15
T21 sequence (P25101 21-427): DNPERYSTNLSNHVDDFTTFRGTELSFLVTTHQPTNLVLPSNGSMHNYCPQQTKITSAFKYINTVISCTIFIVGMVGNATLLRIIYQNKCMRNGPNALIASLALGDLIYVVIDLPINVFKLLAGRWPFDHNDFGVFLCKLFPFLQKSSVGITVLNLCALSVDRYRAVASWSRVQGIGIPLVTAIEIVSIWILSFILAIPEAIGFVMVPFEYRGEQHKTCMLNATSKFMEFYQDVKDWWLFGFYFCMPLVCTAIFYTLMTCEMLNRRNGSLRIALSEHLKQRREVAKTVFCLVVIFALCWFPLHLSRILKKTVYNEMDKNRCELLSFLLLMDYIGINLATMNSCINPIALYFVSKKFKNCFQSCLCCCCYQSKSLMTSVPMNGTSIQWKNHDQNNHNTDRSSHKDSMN

FPR2 = target: T22, FPR2 (Homo sapiens, UniProt P25090); experiment: GPCR Profiler; format: cell-based
T22 construct: host or cells: Chem-1 cells expressing Gα15
T22 sequence (P25090 whole entry): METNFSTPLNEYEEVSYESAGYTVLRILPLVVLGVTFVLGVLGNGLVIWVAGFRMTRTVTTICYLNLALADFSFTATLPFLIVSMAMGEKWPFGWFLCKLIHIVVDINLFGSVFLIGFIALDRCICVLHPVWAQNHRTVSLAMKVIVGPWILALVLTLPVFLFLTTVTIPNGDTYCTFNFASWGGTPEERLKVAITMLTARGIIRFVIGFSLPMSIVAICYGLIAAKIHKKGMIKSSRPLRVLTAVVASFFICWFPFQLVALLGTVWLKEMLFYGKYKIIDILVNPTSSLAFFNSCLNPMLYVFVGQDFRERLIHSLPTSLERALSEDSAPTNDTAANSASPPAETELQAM

Ghrelin = target: T23, Ghrelin (Homo sapiens, UniProt Q92847); experiment: GPCR Profiler; format: cell-based
T23 construct: host or cells: Chem-1 cells expressing Gα15
T23 sequence (Q92847 whole entry): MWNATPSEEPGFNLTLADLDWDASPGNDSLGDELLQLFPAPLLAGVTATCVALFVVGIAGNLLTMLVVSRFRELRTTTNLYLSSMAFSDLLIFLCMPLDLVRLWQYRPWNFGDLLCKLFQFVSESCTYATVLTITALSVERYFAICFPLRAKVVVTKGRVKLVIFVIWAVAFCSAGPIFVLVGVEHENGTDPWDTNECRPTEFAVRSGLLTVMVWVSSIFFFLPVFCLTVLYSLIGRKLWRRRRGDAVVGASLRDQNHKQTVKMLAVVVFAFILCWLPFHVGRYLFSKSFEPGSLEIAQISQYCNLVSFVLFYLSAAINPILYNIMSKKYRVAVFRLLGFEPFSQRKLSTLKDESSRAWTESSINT

mGlu1 = target: T24, mGlu1 (Homo sapiens, UniProt Q13255); experiment: GPCR Profiler; format: cell-based
T24 construct: host or cells: Chem-1 cells expressing Gα15
T24 sequence (Q13255 19-1194): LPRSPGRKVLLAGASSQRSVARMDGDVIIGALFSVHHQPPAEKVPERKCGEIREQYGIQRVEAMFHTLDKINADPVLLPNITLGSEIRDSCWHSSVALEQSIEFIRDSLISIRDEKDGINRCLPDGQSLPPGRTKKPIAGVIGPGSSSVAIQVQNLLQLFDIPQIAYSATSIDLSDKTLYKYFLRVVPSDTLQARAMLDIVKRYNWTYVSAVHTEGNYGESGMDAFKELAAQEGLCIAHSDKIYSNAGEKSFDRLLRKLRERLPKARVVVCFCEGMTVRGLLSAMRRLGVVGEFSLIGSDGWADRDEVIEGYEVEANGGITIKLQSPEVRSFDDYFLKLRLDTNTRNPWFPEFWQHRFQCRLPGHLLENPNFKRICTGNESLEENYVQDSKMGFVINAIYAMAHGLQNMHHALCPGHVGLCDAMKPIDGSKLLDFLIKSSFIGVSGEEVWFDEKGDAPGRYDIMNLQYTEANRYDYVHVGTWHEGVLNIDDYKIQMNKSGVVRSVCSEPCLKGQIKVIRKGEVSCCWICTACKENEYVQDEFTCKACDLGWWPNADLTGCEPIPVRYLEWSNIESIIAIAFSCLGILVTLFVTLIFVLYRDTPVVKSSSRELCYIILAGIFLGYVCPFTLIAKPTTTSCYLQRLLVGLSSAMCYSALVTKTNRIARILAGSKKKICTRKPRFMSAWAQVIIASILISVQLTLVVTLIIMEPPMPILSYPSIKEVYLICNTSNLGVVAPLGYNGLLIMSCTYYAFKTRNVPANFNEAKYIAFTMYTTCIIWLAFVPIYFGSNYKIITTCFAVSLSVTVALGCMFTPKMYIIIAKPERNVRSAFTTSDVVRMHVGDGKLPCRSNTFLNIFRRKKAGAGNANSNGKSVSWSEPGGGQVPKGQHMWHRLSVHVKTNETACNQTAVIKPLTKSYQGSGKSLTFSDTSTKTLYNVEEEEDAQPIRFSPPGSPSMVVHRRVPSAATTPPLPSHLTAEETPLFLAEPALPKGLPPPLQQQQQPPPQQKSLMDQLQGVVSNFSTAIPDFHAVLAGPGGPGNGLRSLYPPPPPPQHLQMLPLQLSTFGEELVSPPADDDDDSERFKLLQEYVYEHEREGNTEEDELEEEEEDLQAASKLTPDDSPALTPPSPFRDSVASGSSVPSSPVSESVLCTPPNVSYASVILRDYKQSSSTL

P2Y12 = target: T25, P2Y12 (Homo sapiens, UniProt Q9H244); experiment: GPCR Profiler; format: cell-based
T25 construct: host or cells: Chem-1 cells expressing Gα15
T25 sequence (Q9H244 whole entry, species assumed): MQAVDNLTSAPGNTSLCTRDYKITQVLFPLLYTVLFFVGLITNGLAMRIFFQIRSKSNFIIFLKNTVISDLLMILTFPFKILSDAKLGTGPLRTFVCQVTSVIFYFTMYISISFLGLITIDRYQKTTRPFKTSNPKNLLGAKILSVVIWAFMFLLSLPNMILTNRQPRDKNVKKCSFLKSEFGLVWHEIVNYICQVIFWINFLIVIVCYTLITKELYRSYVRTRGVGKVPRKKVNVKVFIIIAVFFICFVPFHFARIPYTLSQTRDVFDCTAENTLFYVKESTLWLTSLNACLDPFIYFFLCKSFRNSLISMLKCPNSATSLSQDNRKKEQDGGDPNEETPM

5-HT2A = target: T26, 5-HT2A (Homo sapiens, UniProt P28223); experiment: GPCR Profiler; format: cell-based
T26 construct: host or cells: Chem-1 cells with promiscuous Gα15
T26 sequence (P28223 whole entry): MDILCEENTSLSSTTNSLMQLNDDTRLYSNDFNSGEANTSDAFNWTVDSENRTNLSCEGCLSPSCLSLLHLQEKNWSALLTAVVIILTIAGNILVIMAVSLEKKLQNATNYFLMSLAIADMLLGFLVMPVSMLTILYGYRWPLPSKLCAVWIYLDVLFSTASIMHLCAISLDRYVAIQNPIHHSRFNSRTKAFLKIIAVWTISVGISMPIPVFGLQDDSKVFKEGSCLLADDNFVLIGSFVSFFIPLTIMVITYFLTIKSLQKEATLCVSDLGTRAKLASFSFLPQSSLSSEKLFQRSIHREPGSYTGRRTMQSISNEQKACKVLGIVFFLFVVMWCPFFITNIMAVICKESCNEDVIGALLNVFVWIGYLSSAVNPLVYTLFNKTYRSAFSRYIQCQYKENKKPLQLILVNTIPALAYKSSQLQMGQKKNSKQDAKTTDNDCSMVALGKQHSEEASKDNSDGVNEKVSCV
Experimental: (§1) GPCR profiling assays were performed by Millipore (St. Louis, MO) using in cells expressing Gα15, a promiscuous G protein that enhances GPCR coupling to downstream Ca2+ signaling pathways. KinomeScan was conducted by DiscoveRx (Fremont, CA).
(§2) To identify the target of OGM1, the molecule was profiled for binding in a panel of 442 kinases (KinomeScan™, DiscoveRx™) and assessed its activity against 158 GPCRs in a single-point assay in Chem-1 cells that uses a promiscuous Gα15 protein to trigger calcium flux (see Table 9 and Table 10, below). […] Table 9. KinomeScan (DiscoverRx) profiling of OGM1.

PRP = target: T27, PRP (Homo sapiens, UniProt P49683); experiment: GPCR Profiler; format: cell-based
T27 construct: host or cells: Chem-1 cells with Gα15
T27 sequence (P49683 whole entry): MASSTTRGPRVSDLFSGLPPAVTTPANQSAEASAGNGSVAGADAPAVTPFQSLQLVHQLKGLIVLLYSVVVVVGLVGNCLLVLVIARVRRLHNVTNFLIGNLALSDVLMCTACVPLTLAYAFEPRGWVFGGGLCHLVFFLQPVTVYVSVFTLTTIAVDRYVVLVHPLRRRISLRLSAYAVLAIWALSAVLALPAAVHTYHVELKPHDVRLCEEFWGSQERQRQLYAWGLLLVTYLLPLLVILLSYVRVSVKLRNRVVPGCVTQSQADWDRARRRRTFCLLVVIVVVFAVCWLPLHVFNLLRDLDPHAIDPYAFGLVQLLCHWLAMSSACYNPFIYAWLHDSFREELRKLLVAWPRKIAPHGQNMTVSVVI
Experimental: as §1, §2

CCc1ccc2c(c1)C1(NN=C(c3cccc4ccccc34)S1)C(=O)N2 (centres unmarked) [OGM1, 5-ethyl-5′-naphthalen-1-ylspiro[1H-indole-3,2′-3H-1,3,4-thiadiazole]-2-one]
remaining binding at 10 µM [1]: 100%
remaining binding at 10 µM [2]: 82%
remaining binding at 10 µM [3]: 94%
remaining binding at 10 µM [4]: 73%
remaining binding at 10 µM (ABL2): 100%
remaining binding at 10 µM (CDK5): 100%
remaining binding at 10 µM (CIT): 94%
remaining binding at 10 µM (EPHA4): 100%
remaining binding at 10 µM (EPHB6): 76%
remaining binding at 10 µM (GAK): 64%
remaining binding at 10 µM (LATS1): 100%
remaining binding at 10 µM (LATS2): 100%
remaining binding at 10 µM (LKB1): 78%
remaining binding at 10 µM (MUSK): 90%
remaining binding at 10 µM (NEK5): 95%
remaining binding at 10 µM (PRKD1): 100%
remaining binding at 10 µM (SRPK1): 77%
remaining binding at 10 µM (SRPK3): 100%
Antagonism (A2B; 10 uM): −12.8
Agonism (A2B; 12.5 uM): 4.4
Antagonism (ADRA1D; 10 uM): −5.7
Agonism (ADRA1D; 12.5 uM): 0.8
Antagonism (C3aR; 10 uM): 5.4
Agonism (C3aR; 12.5 uM): 0.2
Antagonism (ETA; 10 uM): 4.7
Agonism (ETA; 12.5 uM): 0.1
Antagonism (FPR2; 10 uM): 23
Agonism (FPR2; 12.5 uM): −0.4
Antagonism (Ghrelin; 10 uM): −6.1
Agonism (Ghrelin; 12.5 uM): 0.3
Antagonism (mGlu1; 10 uM): −12.7
Agonism (mGlu1; 12.5 uM): 1.1
Antagonism (P2Y12; 10 uM): −0.3
Agonism (P2Y12; 12.5 uM): 1
Antagonism (5-HT2A; 10 uM): −12.3
Agonism (5-HT2A; 12.5 uM): 1.2
Antagonism (PRP; 10 uM): −11.1
Agonism (PRP; 12.5 uM): −0.3
